Experimental findings from article PMC7436059, “Synthesis, Characterization, Photoluminescence, Molecular Docking and Bioactivity of Zinc (II) Compounds Based on Different Substituents” (Molecules, 2020) are described below.

Experiment [1] relates to human esophageal cancer cell line (Eca-109). Description: CCK-8 antiproliferative assay, Eca-109. In kind it is cell-based. The note with it: Eca-109, CCK-8, 72 h incubation. An excerpt:
(§1) The in vitro antiproliferative properties of complexes 1–6 against Eca-109, A549 and Bel-7402 tumor lines were examined by employing the CCK-8 assay with cisplatin as a positive control. […] It is interesting that the different cells respond distinctively to these complexes. The complexes display remarkable cytotoxicity against Eca-109 in comparison to A549 and Bel-7402. […] Compared with that of zinc chloride complexes, the antiproliferative activity of these complexes is stronger. This activity of the bromide complexes follows the order of 1 > 3 > 5 and that of the iodide complexes is 2 > 4 > 6. […] It is worth mentioning that, among these compounds, the order of the activity is consistent with the electronegativity values (methylsulfonyl (−2.96) < methoxy (−2.86) < methyl (−2.28) of the substituents.
(§2) In this assay, human esophageal cancer cell line (Eca-109), human lung cancer cell line (A549), human hepatocellular carcinoma cell line (Bel-7402) and mouse monocyte macrophage (RAW264.7) were used to evaluate the antiproliferative activities or cytotoxicity in vitro by CCK-8 assay for determining cell viability with cisplatin as the positive control. All the cells are purchased from the American Type Culture Collection (Manassas, VA, USA). The cells were cultured in 100 µL complete DMEM growth media containing 10% FBS and 1% PS. First, 3000 cells were added to 96-well plates and were cultured overnight in a humidified atmosphere at 37 °C with 5% CO2. Then, complexes 1–6 and cisplatin were diluted with complete DMEM growth media to obtain the working concentration, which was added to the tissue culture plate and incubated for 72 h. The CCK-8 solution was added to each well. After 3 h incubation, the absorbance of each well at 490 nm was measured using an enzyme labeling instrument (Tecan, Grödig, Salzburg, Austrla). Cell morphology was measured and imaged by an inverted microscope (Nikon eclipses TS100, Tokyo, Japan) and a Nikon digital camera (Tokyo, Japan). The 50% inhibitive concentration (IC50) was calculated by Graph Pad Prism 5.0 (San Diego, CA, USA).

Experiment [2] concerns human lung cancer cell line (A549). Kind of experiment: CCK-8 antiproliferative assay, A549. The note with it: A549, CCK-8, 72 h incubation. In kind it is cell-based.
From the text: as §1, §2

The test system of experiment [3] is human hepatocellular carcinoma cell line (Bel-7402). Description: CCK-8 antiproliferative assay, Bel-7402. In kind it is cell-based. The note with it: Bel-7042, CCK-8, 72 h incubation.
From the text: as §1, §2

For experiment [4], the target named is T1, BSA (Bos taurus, UniProt P02769).
T1 construct: purchased Asbio
Kind of experiment: BSA fluorescence quenching titration (Stern-Volmer, Scatchard). The note with it: 1.6 μM BSA, Tris-HCl buffer; for Ksv (Stern-Volmer quenching constant): excitation 280 nm; for n (binding site number): Scatchard equation; for Kq (quenching rate constant): τ0 = 10^−8 s. In kind it is binding, bovine. An excerpt:
The structure and transmission characteristics of BSA are similar to HSA [36]. BSA was used instead of HSA for drug delivery due to its ease to purify and stability. The binding of metal complexes to proteins was studied by fluorescence spectrum titration. Endogenous fluorescence of BSA comes from residues as tryptophan (Trp), tyrosine (Tyr) and phenylalanine (Phe), and conformational changes of BSA-binding metal complexes are obtained by observing the fluorescence of Trp residues at 350 nm. […] The same phenomenon occurs for the other compounds (shown in Figure S22, Supplementary Materials). […] This appearance may be due to a resonant energy transfer. […] The Stern–Volmer equation [37] (Equation (1)) was used to study the quenching mechanism of BSA and the complexes:I0/I = 1 + Kqτ0[Q] = 1 + Ksv[Q](1) where the fluorescence intensity of the protein is expressed by I0 and I in absence and in presence of quencher, respectively; Ksv is the Stern–Volmer quenching rate constant; Kq is the quenching rate constant; and τ0 and [Q] represent the lifetime of fluorescent molecule in absence of quencher (valued 10^−8 s) and quencher concentration, respectively. The maximum causing a value of dynamic quenching in biopolymers is 2 × 10^10 M^−1 S^−1 [23].
Calculation of the binding constants (Kb) was achieved according to the Scatchard equation [38] (Equation (2)):log [(I0 − I)/I] = logKb + nlog[Q](2) where Kb and n represent the binding constant and the binding site number, respectively. The binding constants Kb and the binding site number were obtained from the intercept and slope of the double logarithm regression plot between log [(I0 − I)/I] and log [Q]. The binding constant (>104 L mol^−1) was obtained under the condition of high binding affinity. […] It can be seen in Figure 7 that the absorption spectra of the complexes partially overlap with the […] spectrum of BSA.
Bovine serum albumin (BSA) was dissolved in a Tris-HCl buffer (pH = 7.4) solution to prepare a 1.6 × 10^−6 M BSA solution. The protein concentration was measured by spectrophotometry at 280 nm with the extinction coefficient of 44,300 M^−1 cm^−1. Stock solutions of complexes 1–6 (1 × 10^−2 M) were prepared in DMSO. The emission spectrum (300–600 nm) of BSA was monitored at the excitation wavelength of 280 nm.

T1 sequence (P02769 25-607): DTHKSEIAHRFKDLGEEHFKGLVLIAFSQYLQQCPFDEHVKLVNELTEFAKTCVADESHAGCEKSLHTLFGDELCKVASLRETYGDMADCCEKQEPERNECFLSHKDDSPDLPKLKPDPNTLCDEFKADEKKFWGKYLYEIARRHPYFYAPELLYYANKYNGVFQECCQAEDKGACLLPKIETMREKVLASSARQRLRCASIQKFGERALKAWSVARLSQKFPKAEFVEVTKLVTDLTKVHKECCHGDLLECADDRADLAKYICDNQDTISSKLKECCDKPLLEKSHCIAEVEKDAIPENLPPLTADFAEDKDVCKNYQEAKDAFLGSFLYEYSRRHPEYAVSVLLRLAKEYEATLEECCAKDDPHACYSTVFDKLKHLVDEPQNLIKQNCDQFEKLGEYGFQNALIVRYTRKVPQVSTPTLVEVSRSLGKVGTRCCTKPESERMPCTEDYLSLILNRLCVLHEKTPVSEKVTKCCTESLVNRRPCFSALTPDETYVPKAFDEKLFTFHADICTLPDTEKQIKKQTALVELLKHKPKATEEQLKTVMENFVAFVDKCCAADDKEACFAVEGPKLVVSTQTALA

In the case of `N.N.[Cl][Pt][Cl]` [cisplatin, reference compound], the IC50 is 5460 nM in experiment [1], 12000 nM in experiment [2] and 3090 nM in experiment [3].

In experiment [1], `COc1ccc(-c2cc(-c3ccccn3)nc(-c3ccccn3)c2)cc1.[Br][Zn][Br]` [Compound 3, [ZnBr2L^2]] had a half-inhibitory concentration (IC50) of 169 nM. Also, inhibition in experiment [2] was half-maximal at 482 nM (IC50). The midpoint of inhibition in experiment [3], the IC50, lay at 414 nM. Also, in experiment [4], the “Ksv (Stern-Volmer quenching constant)” value was 115000 M⁻¹, the “n (binding site number)” value stood at 1.07 and the Kq (quenching rate constant) turned out to be 1.15e+13 M⁻¹ s⁻¹.

Take `CS(=O)(=O)c1ccc(-c2cc(-c3ccccn3)nc(-c3ccccn3)c2)cc1.[Br][Zn][Br]` [Compound 1, [ZnBr2L^1]]: it took 79 nM to reach half-maximal inhibition in experiment [1] (IC50). The concentration for half-maximal inhibition (IC50) in experiment [3] was found to be 358 nM. Also, in experiment [4], the “Ksv (Stern-Volmer quenching constant)” value was 176000 M⁻¹, the “n (binding site number)” value is 0.72 and the Kq (quenching rate constant) worked out at 1.76e+13 M⁻¹ s⁻¹.

Take `Cc1ccc(-c2cc(-c3ccccn3)nc(-c3ccccn3)c2)cc1.[I][Zn][I]` [Compound 6, [ZnI2L^3]]: the half-inhibitory concentration (IC50) in experiment [1] was determined as 146 nM. In addition, the midpoint of inhibition in experiment [2], the IC50, lay at 945 nM. Further, in experiment [4], the “Ksv (Stern-Volmer quenching constant)” value came out at 76700 M⁻¹, the “n (binding site number)” value amounted to 0.89 and the Kq (quenching rate constant) came to 7.67e+12 M⁻¹ s⁻¹.

For `COc1ccc(-c2cc(-c3ccccn3)nc(-c3ccccn3)c2)cc1.[I][Zn][I]` [Compound 4, [ZnI2L^2]], in experiment [1], the IC50 was found to be 75 nM. In experiment [2], this compound came in with a half-maximal inhibitory concentration (IC50) of 307 nM. The compound also gave an IC50 in experiment [3] of 397 nM. For the same compound, in experiment [4], the “Ksv (Stern-Volmer quenching constant)” value was 163000 M⁻¹, the “n (binding site number)” value is 1.08 and the Kq (quenching rate constant) turned out to be 1.63e+13 M⁻¹ s⁻¹.

Consider `Cc1ccc(-c2cc(-c3ccccn3)nc(-c3ccccn3)c2)cc1.[Br][Zn][Br]` [Compound 5, [ZnBr2L^3]], for which the IC50 in experiment [1] came to 197 nM; in experiment [2] it was 748 nM; in experiment [3], 616 nM. Further, the “Ksv (Stern-Volmer quenching constant)” value in experiment [4] turned out to be 46300 M⁻¹. In experiment [4], the “n (binding site number)” value stood at 0.87. This compound also displayed a Kq (quenching rate constant) in experiment [4] of 4.63e+12 M⁻¹ s⁻¹.

Consider `CS(=O)(=O)c1ccc(-c2cc(-c3ccccn3)nc(-c3ccccn3)c2)cc1.[I][Zn][I]` [Compound 2, [ZnI2L^1]], for which, in experiment [1], the half-inhibitory concentration (IC50) was determined as 66 nM. For the same compound, in experiment [2], half-maximal inhibition (IC50) was put at 290 nM. In experiment [3], this compound had an IC50 of 331 nM. For the same compound, in experiment [4], the “Ksv (Stern-Volmer quenching constant)” value amounted to 176000 M⁻¹, the “n (binding site number)” value is recorded as 0.83 and the Kq (quenching rate constant) was 1.76e+13 M⁻¹ s⁻¹.
